Laboratory results taken from US20070265165A1, “NOVEL HERBICIDES” (Syngenta Crop Protection, Inc., priority 1998, published 2007).

How the values were obtained:
Assay type in all cases: in vivo
[1] = test system: Sinapsis; assay: Post-emergent herbicidal action; conditions: 2000 g AS/ha sprayed in the 4- to 6-leaf stage; evaluated about 18 days later; rating scale 1-9 (1=total damage, 9=no action)
Description: (§1) In a greenhouse, monocot and dicot test plants are sown in standard soil in plastic pots and sprayed in the 4- to 6-leaf stage with an aqueous suspension of the test compounds of formula I prepared from a 25% wettable powder [Example F3, b) of WO 97/34485] or with an emulsion of the test compound of formula I prepared from a 25% emulsifiable concentrate [Example F1 c) of WO 97/34485] at a concentration of 2 kg active substance/ha (500 l of water/ha). The test plants are then further cultivated in the greenhouse under optimum conditions. The test is evaluated about 18 days later on a rating scale of 1-9 (1=total damage, 9=no action). Ratings of 1 to 4 (especially of 1 to 3) denote good to very good herbicidal action.

[2] = test system: Stellaria; assay: Post-emergent herbicidal action; conditions: 2000 g AS/ha sprayed in the 4- to 6-leaf stage; evaluated about 18 days later; rating scale 1-9 (1=total damage, 9=no action)
Description: as §1

[3] = test system: Setaria; assay: Post-emergent herbicidal action; conditions: 2000 g AS/ha sprayed in the 4- to 6-leaf stage; evaluated about 18 days later; rating scale 1-9 (1=total damage, 9=no action)
Description: as §1

[4] = test system: Cyperus; assay: Post-emergent herbicidal action; conditions: 2000 g AS/ha sprayed in the 4- to 6-leaf stage; evaluated about 18 days later; rating scale 1-9 (1=total damage, 9=no action)
Description: as §1

[5] = test system: Solanig; assay: Post-emergent herbicidal action; conditions: 2000 g AS/ha sprayed in the 4- to 6-leaf stage; evaluated about 18 days later; rating scale 1-9 (1=total damage, 9=no action)
Description: as §1

[6] = test system: Sinapsis; assay: Pre-emergent herbicidal action; conditions: 2000 g AS/ha sprayed immediately after sowing; evaluated 3 weeks later; rating scale 1-9 (1=total damage, 9=no action)
Description: (§2) Monocot and dicot test plants are sown in standard soil in plastic pots. Immediately after sowing, the plants are sprayed at a concentration of 2 kg active substance/ha with an aqueous suspension of the test compound [prepared from a 25% wettable powder (Example F3, b) in accordance with WO 97/34485] or an emulsion of the test compound [prepared from a 25% emulsifiable concentrate (Example Fl c)] (500 l of water/ha). The test plants are then cultivated in the greenhouse under optimum conditions. The test is evaluated 3 weeks later on a rating scale of 1-9 (1=total damage, 9=no action). Ratings of 1 to 4 (especially of 1 to 3) denote good to very good herbicidal action.

[7] = test system: Stellaria; assay: Pre-emergent herbicidal action; conditions: 2000 g AS/ha sprayed immediately after sowing; evaluated 3 weeks later; rating scale 1-9 (1=total damage, 9=no action)
Description: as §2

[8] = test system: Setaria; assay: Pre-emergent herbicidal action; conditions: 2000 g AS/ha sprayed immediately after sowing; evaluated 3 weeks later; rating scale 1-9 (1=total damage, 9=no action)
Description: as §2

[9] = test system: Cyperus; assay: Pre-emergent herbicidal action; conditions: 2000 g AS/ha sprayed immediately after sowing; evaluated 3 weeks later; rating scale 1-9 (1=total damage, 9=no action)
Description: as §2

[10] = test system: Solanig; assay: Pre-emergent herbicidal action; conditions: 2000 g AS/ha sprayed immediately after sowing; evaluated 3 weeks later; rating scale 1-9 (1=total damage, 9=no action)
Description: as §2

Structure (SMILES)	Post-emergent action, test plant Sinapsis, rating [1]	Post-emergent action, test plant Stellaria, rating [2]	Post-emergent action, test plant Setaria, rating [3]	Post-emergent action, test plant Cyperus, rating [4]	Post-emergent action, test plant Solanig, rating [5]	Pre-emergent action, test plant Sinapsis, rating [6]	Pre-emergent action, test plant Stellaria, rating [7]	Pre-emergent action, test plant Setaria, rating [8]	Pre-emergent action, test plant Cyperus, rating [9]	Pre-emergent action, test plant Solanig, rating [10]
COCc1c(S(C)(=O)=O)ccc(C(=O)C2=C(O)C3CCC(C3)C2=O)c1C (centres unmarked) [1,001, 4-hydroxy-3-(4-methylsulphonyl-3-methoxymethyl-2-methyl-benzoyl)-bicyclo[3.2.1]oct-3-en-2-one]	2	2	2	3	2	3	2	3	3	2
COCc1c(S(C)(=O)=O)ccc(C(=O)C2=C(O)C(C)(C)ON(C)C2=O)c1C [2,001, 5-hydroxy-4-(4-methylsulphonyl-3-methoxymethyl-2-methyl-benzoyl)-2,6,6-trimethyl-6.H.-[1,2]oxazin-3-one]	2	4	3	3	2	2	2	3	3	2
